US5144010A, “Method of producing monoclonal auto-anti-idiotypic antibodies” (The Trustees of Columbia University in the City of New York, priority 1989, dated 1992)
Read-outs that look alike come from different tables or passages of the source.

Key:
[1] = target: anti-steroid Fab fragments; assay: Scatchard analysis of tritiated steroid binding to Fab fragments of affinity purified anti-steroid antibodies; set-up: species or system rabbit; settings: tritiated ligand, read-out: Kd for Fab fragments of the anti-steroid from Scatchard plots
Procedure: FIG. 5. Scatchard plot of the binding of [^3 H]triamcinolone acetonide to Fab fragments of affinity purified anti-steroid antibodies. Fab fragments (0.227 micrograms) were incubated with increasing concentrations of [^3 H]triamcinolone acetonide (0.4-62.5 nM) in the presence of 0.01M phosphate buffered saline pH 7.4 containing 0.1% gelatin in a total volume of 200 microliters. Total and non-specific binding (50 micromolar triamcinolone acetonide) were determined for each of the [^3 H]triamcinolone acetonide levels and all points were in duplicate. After incubating 1 hr at room temperature, add 1 ml cold 5% charcoal/dextran (diluted 1:40 in 0.01M PBS containing 0.1% gelatin) and let stand on ice for 10 min. Centrifuge down the charcoal/dextran, decant the supernatant into scintillation vials and determine the radioactivity.

[2] = target: anti-steroid antibodies; assay: Competitive inhibition of binding of [3H]TA to rabbit anti-steroid antibodies (serum, affinity purified, Fab fragments)
Procedure: After incubating for 11/2 hrs at room temperature add 1 ml cold 5% charcoal/dextran (dil 1:40 with 0.1% gelatin in PBS). Let stand at 4° C. for 10 mins.

[3] = system: anti-steroid Fab fragments; assay: ELISA of 8G11-C6 binding to anti-steroid Fab fragments and its inhibition; set-up: species or system rabbit; settings: inhibitor pre-incubated (FIG. 9, 10)
Procedure: FIG. 9 and 10. […] Controls with no inhibitor were included. […] Blanks with only PBS were included as well. The inhibitors used in FIG. 9 were triamcinolone acetonide ( ), triamcinolone-RSA ( ) and rabbit serum albumin ( ).
FIG. 11. […] The method used was similar to that described in the experimental procedure. […] 200λ of the incubation mixture was then added to microtiter wells previously coated with 10 ng anti-steroid Fab fragments and incubated for 2 hrs at 37° C.
The presence of anti-idiotypic antibodies in the hybridoma culture medium were assayed by a double antibody sandwich ELISA. […] After washing twice with 0.01M phosphate buffer - 0.14M NaCl, pH 7.4, containing 0.05% Tween (PBS-tween), the culture medium from the hybridomas was added and incubated at 37° C. for 2 hrs. The wells were washed three times with PBS-tween and 200 microliters of 1:3,000 dilution in PBS-tween of goat anti-mouse IgM-IgG horseradish peroxidase (Tago) was added. After incubating 1 hr at 37° C., the wells were washed three times with PBS-tween and 200 microliters substrate (7 mg o-phenylenediamine dichloride in 10 ml 0.1 M citrate-phosphate buffer, pH 4.8 containing 5 microliters of 30% H2 O2) was added. Depending on the intensity of the color, the reaction was stopped after 5-10 min by the addition of 50 microliters 8N H2 SO4 and the OD determined (Titretek) at 492 nm.

[4] = target: T1, glucocorticoid receptor (Rattus norvegicus, UniProt P06536); assay: biochemical
T1 sequence (P06536 1-795): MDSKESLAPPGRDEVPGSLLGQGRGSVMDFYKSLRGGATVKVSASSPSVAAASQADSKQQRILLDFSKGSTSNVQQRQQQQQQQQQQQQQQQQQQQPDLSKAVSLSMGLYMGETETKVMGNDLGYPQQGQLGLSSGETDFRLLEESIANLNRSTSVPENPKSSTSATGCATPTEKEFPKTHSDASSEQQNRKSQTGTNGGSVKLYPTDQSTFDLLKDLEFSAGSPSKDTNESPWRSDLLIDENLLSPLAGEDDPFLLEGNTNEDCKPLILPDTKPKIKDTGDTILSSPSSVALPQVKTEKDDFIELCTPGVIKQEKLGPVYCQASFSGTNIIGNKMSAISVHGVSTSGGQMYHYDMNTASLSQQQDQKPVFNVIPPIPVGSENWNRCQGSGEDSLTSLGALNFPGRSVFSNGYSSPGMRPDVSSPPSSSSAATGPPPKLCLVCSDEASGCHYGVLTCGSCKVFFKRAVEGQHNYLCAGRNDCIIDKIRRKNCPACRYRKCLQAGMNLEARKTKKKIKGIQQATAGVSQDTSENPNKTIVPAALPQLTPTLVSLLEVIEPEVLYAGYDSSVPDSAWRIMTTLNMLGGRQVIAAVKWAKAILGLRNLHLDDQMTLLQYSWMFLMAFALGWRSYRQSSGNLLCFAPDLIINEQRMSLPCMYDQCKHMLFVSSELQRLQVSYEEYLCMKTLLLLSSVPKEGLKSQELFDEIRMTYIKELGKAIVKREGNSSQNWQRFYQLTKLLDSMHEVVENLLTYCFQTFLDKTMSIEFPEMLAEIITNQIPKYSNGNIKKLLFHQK
Procedure: (§3) Incubate in a total volume of 500 microliters, for 2 hrs at 4° C., 20 mM HEPES buffer containing 50 mM NaCl, 1 mM EDTA, 10% glycerol 0.1 mM DTT pH 7.6, 10 nM [^3 H]TA and 200 microliters rat liver cytosol. Add 250 microliters 5% charcoal/dextran suspension and after 10 min centrifuge and determine the radioactivity in 200 λ aliquot.
(§4) The results tabulated in table I below represents the amount of unlabeled steroid that can displace 50% binding of 1×10^-8 M [^3 H]TA. Binding in the absence of competing steroid was taken as 100%.
(§5) Table I: Competitive inhibition of binding of [^3 H] triamcinolone to
(§6) glucocorticoid receptor included 100 ml of rat liver cytosol. 10^-8 M
(§7) [^3 H]TA and increasing concentrations of steroid in a total volume o
(§8) 200 ml. After incubating for 2 hrs at 4° C., 100 5%
(§9) charcoal/dextran was added. Let stand for 5 mins at 4° C. Make up
(§10) to 1 ml with PBS and after 5 mins centrifuge down charcoal. Decant
(§11) supernatant into scintillation vials. Add 10 ml hydrofluor and count.

[5] = target: T2, partially purified glucocorticoid receptor (Rattus norvegicus, UniProt P06536); assay: ELISA of 8G11-C6 binding to partially purified glucocorticoid receptor and its inhibition; settings: ELISA (FIG. 13)
T2 sequence (P06536 1-795): T1 sequence (P06536 1-795)
Procedure: FIG. 12. […] 200 microliters containing either 1.08 micrograms ( ) or 0.54 micrograms ( ) of a partially purified receptor preparation in 0.1 M NaHCO3 were added to the wells of the polystyrene plastic and incubated overnight at 4° C. […] See methods section for the methodology employed.
FIG. 13. […] 200 microliters containing 0.54 micrograms protein of a partially purified receptor preparation in 0.1 M NaHCO3 pH 9.3 was added to the wells of polystyrene plates. These were incubated for 2 hrs at 37° C. Washed 2× with PBS containing 0.02% Tween. […] See methods for the methodology employed. The inhibitors used were triamcinolone acetonide ( ), rabbit serum albumin ( ) and triamcinolone-RSA ( ).

[6] = target: rabbit anti-BisQ; assay: Enzyme immunoassay of F8-D5 binding to rabbit anti-BisQ and its inhibition; settings: read-out: concentration giving 50% inhibition of binding of F8-D5 to rabbit anti-BisQ; stated as a similar concentration
Procedure: (§1) Wells of polystyrene plates (Corning) were then coated with 150 microliters of either 400 ng/ml purified rabbit anti-BisQ (1) in 0.1 M NaHCO3, pH 9.3, or […] purified Torpedo receptor in the same buffer. Coating was accomplished by incubating for 2 h at 37° C. After two washings with 0.01 M phosphate buffer:0.14 M NaCl, pH 7.2, containing 0.05% v/v Tween-20 (PBS-Tween), the wells were exposed to the various concentrations of F8-D5 in PBS-Tween. After incubation at 37° C. for 2h, the wells were washed three times with PBS-Tween and then filled with 200 microliters of 1:1,000 dilution in PBS-Tween of goat anti-mouse immunoglobulin labeled with horseradish -peroxidase (Sigma). After incubation at 37° C. for 1 h, the wells were washed three times with PBS-Tween. Peroxidase was assayed by incubation with o-phenylenediamine dihydrochloride (7 mg in 10 ml 0.1 M citrate-phosphate buffer, pH 4.8, containing 5 microliters of 30% H2 O2) for 10 min. The reaction was stopped with 50 microliters per well of 4 M H2 SO4 and the color read at 492 nm in a Multiskan Titertek apparatus. Values were corrected for a PBS blank which was never higher than 0.150. (The above conditions were not chosen for optimal sensitivity but for speed and convenience.)
(§2) To confirm that the same monoclonal antibody bound receptor and anti-BisQ, reciprocal inhibition experiments were carried. […]

[7] = target: T3, Torpedo AChR (Tetronarce californica, UniProt P02710+P02714+P02718); assay: Enzyme immunoassay of F8-D5 binding to Torpedo AChR and its inhibition
T3 construct: purified Torpedo AChR preparation; from tissue; host or cells: Torpedo electric organ (inferred, the usual source of purified Torpedo receptor)
T3 sequence (P02710 25-461): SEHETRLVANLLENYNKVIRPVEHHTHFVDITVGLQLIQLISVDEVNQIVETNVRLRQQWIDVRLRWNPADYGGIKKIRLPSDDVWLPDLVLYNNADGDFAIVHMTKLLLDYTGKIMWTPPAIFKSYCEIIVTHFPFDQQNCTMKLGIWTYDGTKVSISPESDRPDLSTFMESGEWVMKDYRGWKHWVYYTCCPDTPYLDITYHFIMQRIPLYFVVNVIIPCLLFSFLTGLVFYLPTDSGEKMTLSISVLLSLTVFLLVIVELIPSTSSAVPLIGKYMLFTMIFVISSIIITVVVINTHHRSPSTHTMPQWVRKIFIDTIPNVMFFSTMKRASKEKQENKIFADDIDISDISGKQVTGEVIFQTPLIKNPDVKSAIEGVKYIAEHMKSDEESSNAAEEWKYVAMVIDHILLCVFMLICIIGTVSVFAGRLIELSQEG
T3 sequence (P02712 25-493 partner): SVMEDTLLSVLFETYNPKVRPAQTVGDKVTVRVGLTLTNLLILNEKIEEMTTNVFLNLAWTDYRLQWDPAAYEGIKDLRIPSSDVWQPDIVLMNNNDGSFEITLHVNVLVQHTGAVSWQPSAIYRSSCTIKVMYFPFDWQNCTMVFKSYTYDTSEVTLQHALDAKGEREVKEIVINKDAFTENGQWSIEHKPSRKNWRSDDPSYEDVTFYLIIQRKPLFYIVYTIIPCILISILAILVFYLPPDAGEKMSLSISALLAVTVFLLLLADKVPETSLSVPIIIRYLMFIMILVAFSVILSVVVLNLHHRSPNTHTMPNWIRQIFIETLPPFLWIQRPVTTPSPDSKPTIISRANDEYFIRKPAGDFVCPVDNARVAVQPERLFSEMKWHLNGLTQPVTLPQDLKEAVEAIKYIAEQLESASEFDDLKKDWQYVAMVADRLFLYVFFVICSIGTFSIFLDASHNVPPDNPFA
T3 sequence (P02714 18-506): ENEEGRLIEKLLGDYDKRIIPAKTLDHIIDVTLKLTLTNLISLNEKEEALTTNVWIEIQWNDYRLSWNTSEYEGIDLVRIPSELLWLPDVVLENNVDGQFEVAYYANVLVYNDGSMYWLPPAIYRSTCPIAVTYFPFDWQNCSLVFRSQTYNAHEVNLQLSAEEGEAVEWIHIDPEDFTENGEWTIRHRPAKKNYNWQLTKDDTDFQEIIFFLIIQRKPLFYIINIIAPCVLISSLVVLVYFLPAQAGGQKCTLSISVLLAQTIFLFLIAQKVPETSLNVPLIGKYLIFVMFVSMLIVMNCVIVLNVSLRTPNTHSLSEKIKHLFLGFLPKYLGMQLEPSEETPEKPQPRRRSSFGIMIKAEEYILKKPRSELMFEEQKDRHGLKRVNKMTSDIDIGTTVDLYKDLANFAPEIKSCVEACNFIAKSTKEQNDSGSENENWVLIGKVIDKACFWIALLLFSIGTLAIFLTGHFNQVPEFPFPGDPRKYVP
T3 sequence (P02718 22-522): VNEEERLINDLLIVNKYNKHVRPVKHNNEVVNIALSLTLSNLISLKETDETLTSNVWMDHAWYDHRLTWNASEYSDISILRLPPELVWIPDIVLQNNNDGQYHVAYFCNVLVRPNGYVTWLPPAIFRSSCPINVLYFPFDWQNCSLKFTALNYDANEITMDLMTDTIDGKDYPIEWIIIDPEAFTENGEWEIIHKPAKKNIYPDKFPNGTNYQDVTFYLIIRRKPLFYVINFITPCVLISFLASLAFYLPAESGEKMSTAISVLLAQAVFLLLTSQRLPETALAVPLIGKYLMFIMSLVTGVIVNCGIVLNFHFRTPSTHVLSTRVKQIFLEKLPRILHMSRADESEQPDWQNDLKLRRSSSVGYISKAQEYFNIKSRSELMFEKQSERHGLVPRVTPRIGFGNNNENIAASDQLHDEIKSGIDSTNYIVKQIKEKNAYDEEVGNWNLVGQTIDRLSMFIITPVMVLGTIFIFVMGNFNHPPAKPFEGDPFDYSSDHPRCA
Procedure: as §1, §2

[8] = target: T1, glucocorticoid receptor; assay: Competitive inhibition of binding of [3H]triamcinolone acetonide to glucocorticoid receptor in rat liver cytosol; settings: apparent Kd of the glucocorticoid receptor, competitive binding with [3H]TA as tracer (FIG. 6, Table I)
Procedure: as §3, §4, §5, §6, §7, §8, §9, §10, §11

[9] = affinity purified anti-steroid 1.3 micrograms, 1×10^-8 M [3H]TA, read-out: Affinity purified anti-steroid: amount of unlabeled steroid that can displace 50% binding of [3H]TA
[10] = anti-steroid Fab fragments 0.18 micrograms, 1×10^-8 M [3H]TA, read-out: Rabbit serum 541 Fab fragments: amount of unlabeled steroid that can displace 50% binding of [3H]TA
[11] = unprocessed rabbit serum 540 dil 1:1000, 1×10^-8 M [3H]TA, read-out: Rabbit Serum 540 Unprocessed: amount of unlabeled steroid that can displace 50% binding of [3H]TA
[12] = unprocessed rabbit serum 540 dil 1:1000, 1×10^-8 M [3H]TA

Compound | IC50 [2, 9] [nM] | IC50 [2, 10] [nM] | IC50 [2, 11] [nM] | effect on the binding of 8G11-C6 to anti-steroid Fab fragments [3] | further results
C[C@@H]1C[C@H]2[C@@H]3CCC4=CC(=O)C=C[C@]4(C)[C@@]3(F)[C@@H](O)C[C@]2(C)[C@@]1(O)C(=O)CO [Dexamethasone] | 620 | 630 | 120 | – | Kd [1]: 150 nM
C[C@]12C=CC(=O)C=C1CC[C@H]1[C@@H]3C[C@@H](O)[C@](O)(C(=O)CO)[C@@]3(C)C[C@H](O)[C@@]12F [Triamcinolone, 9-fluoro-11β, α16 , 17, 21-tetrahydroxypregna-1,4-diene-3, 20-dione] | 15 | 15 | 3.2 | slight activation of binding | IC50 [4]: 5 nM
C[C@]12CCC(=O)C=C1CC[C@@H]1[C@@H]2[C@@H](O)C[C@@]2(C)[C@H]1CC[C@]2(O)C(=O)CO [Hydrocortisone] | 100000 | 100000 | 5000 | – | –
rabbit serum albumin: carrier protein tested alone as inhibitor | – | – | – | did not affect | –
C[C@]12CC[C@H]3[C@@H](CCC4=CC(=O)CC[C@@]43C)[C@@H]1CC[C@@H]2O [Testosterone] | – | – | – | slight activation of binding | Affinity purified anti-steroid: amount of unlabeled steroid that can displace 50% binding of [3H]TA ([2]; affinity purified anti-steroid 1.3 micrograms, 1×10^-8 M [3H]TA): not inhibited; Rabbit serum 541 Fab fragments: amount of unlabeled steroid that can displace 50% binding of [3H]TA ([2]; anti-steroid Fab fragments 0.18 micrograms, 1×10^-8 M [3H]TA): not inhibited; Rabbit Serum 540 Unprocessed: amount of unlabeled steroid that can displace 50% binding of [3H]TA [2, 12]: not inhibited; effect on the binding of 8G11-C6 to partially purified glucocorticoid receptor [5]: only a slight inhibitory effect
C[C@]12CC[C@@H]3c4ccc(O)cc4CC[C@H]3[C@@H]1CC[C@@H]2O [estradiol-17β] | – | – | – | slight activation of binding | effect on the binding of 8G11-C6 to partially purified glucocorticoid receptor [5]: no effect
C[N+](C)(C)Cc1cccc(/N=N/c2cccc(C[N+](C)(C)C)c2)c1 [BisQ, trans-3,3'-bis(α-trimethylammonium)azotoluene] | – | – | – | – | IC50 [6]: ~40000 nM; IC50 [7]: 40000 nM
CC(=O)[C@H]1CC[C@H]2[C@@H]3CCC4=CC(=O)CC[C@]4(C)[C@H]3CC[C@]12C [Progesterone] | 100000 | 100000 | 100000 | – | –
CC1(C)O[C@@H]2C[C@H]3[C@@H]4CCC5=CC(=O)C=C[C@]5(C)[C@@]4(F)[C@@H](O)C[C@]3(C)[C@]2(C(=O)CO)O1 [triamcinolone acetonide] | – | – | – | did not affect | Kd ([2]; competitive binding with [3H]TA as tracer (FIG. 6, Table I), read-out: apparent Kd of the anti-steroid in unprocessed rabbit serum): 3.2 nM; Kd [4]: 15 nM; Kd [8]: 5 nM
C[C@]12CCC(=O)C[C@@H]1CC[C@@H]1[C@@H]2CC[C@]2(C)[C@@H](O)CC[C@@H]12 [Dihydrotestosterone] | – | – | – | – | Rabbit Serum 540 Unprocessed: amount of unlabeled steroid that can displace 50% binding of [3H]TA [2, 12]: no effect
C[C@]12C[C@H](O)[C@H]3[C@@H](CCC4=CC(=O)CC[C@@]43C)[C@@H]1CC[C@@H]2C(=O)CO [Corticosterone] | 100000 | 100000 | 6300 | – | –
